# According to paper PMC9127068 (ChemMedChem, 2022):
# Target: T1, 5-HT1A receptor (5-HT1AR) (Homo sapiens, UniProt P08908)
# T1 sequence (P08908 1-422): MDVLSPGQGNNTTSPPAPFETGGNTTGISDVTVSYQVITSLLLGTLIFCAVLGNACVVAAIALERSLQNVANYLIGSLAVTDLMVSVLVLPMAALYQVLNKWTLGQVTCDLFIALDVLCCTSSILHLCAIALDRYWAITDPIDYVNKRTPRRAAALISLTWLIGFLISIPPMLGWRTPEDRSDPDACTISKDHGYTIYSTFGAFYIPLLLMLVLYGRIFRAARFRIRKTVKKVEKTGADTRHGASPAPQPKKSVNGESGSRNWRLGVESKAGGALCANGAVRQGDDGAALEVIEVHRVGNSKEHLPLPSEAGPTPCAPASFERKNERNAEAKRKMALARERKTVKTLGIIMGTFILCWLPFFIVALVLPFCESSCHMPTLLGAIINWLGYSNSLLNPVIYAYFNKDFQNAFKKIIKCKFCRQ
# Assay: radioligand displacement of [3H]-8-OH-DPAT
# Type: binding
row,Ki,SMILES
1,1.8 nM,CCCN(CCCCCCNS(=O)(=O)c1cccc2c(N(C)C)cccc12)C1CCc2cccc(O)c2C1 (centres unmarked) [5a]
2,10 nM,CCCN(CCCCCCNc1ccc([N+](=O)[O-])c2nonc12)C1CCc2cccc(O)c2C1 (centres unmarked) [5b]
